Assay results as given in patent publication US4668681A, “2-(4-Phenylpiperazinylethyl) anilines” (Societe Cortial, S.A., priority 1981, dated 1987).
≈ marks a conversion by molar mass, not a printed value.

How the values were obtained:
[1] = Lethality (LD50) by oral administration in the Swiss mouse; details: in vivo, 20% solution in Tween, 14 days observation
Experimental: The lethality produced by the compounds of this invention was measured in the Swiss mouse free from specific pathogenic organisms.

[2] = system: isolated ileum of the guinea pig; assay: Antihistaminic activity in vitro: inhibition of histamine-induced contractions of isolated ileum; assay type: cell-based; details: Cavia porcellus, histamine 1×10^-8 g/l, bathing method, read-out: IC50 (concentration producing 50% inhibition of contractions induced by histamine)
Experimental: The antihistaminic activity was measured in vitro by measuring the concentration which produced 50% inhibition of the contractions induced by histamine (1×10^-8 g/l) in the isolated ileum of the guinea pig (IC50).

male Sprague-Dawley rats = assay: Antiallergic activity: passive cutaneous anaphylaxis test; assay type: in vivo; details: oral, suspension with Tween 80, ten minutes before the releasing injection, rat; read-out: ED50 (percentage decrease of the amount of Evans blue diffused in the papule)
Experimental: The antiallergic activity was determined by the passive cutaneous anaphylaxis test in the following manner. A quantity of 0.1 ml of serum containing IgE was administered intradermally to male Sprague-Dawley rats. The serum was prepared by sensitizing Sprague-Dawley rats by an intraperitoneal injection of ovalbumin and a suspension of Bordetella pertussis followed after 20 days by a second injection of ovalbumin. 24 Hours after administration of the serum, 0.5 ml of a solution containing 8.25 mg/kg of ovalbumin and 26.4 mg/kg of Evans blue in a pH 7.05 buffer was administered intravenously. After 30 minutes the animals were sacrificed. Each papule was dissected, weighed and incubated for four days at 37° C. in 15 g of formamide. The amount of Evans blue contained in each papule was determined by measuring the optical density of the mixture. The product to be tested was administered orally in a homogenous suspension in the presence of Tween 80, ten minutes before the releasing injection. Its activity is evaluated by the percentage decrease of the amount of Evans blue which has diffused in the papule.

Nc1ccccc1CCN1CCN(c2ccccc2)CC1 [Example 1, 2-(4-phenylpiperazinylethyl)aniline]
LD50 at 336 h [1]: 1180 mg/kg
IC50 [2]: 6.3 µg/mL (≈ 22.4 µM)
ED50 (male Sprague-Dawley rats): 5.11 mg/kg
